Key:
Format in all cases: binding
[1] = biological target: HEK293 cell lysate proteins and CHIKV nsP2 (Homo sapiens, UniProt A8K2U0)
[2] = biological target: HEK293 cell lysate proteins and CHIKV nsP2 (Homo sapiens, UniProt O14617)
[3] = biological target: HEK293 cell lysate proteins and CHIKV nsP2 (Homo sapiens, UniProt O43290)
[4] = biological target: HEK293 cell lysate proteins and CHIKV nsP2 (Homo sapiens, UniProt O60231)
[5] = biological target: HEK293 cell lysate proteins and CHIKV nsP2 (Homo sapiens, UniProt O60814)
[6] = biological target: HEK293 cell lysate proteins and CHIKV nsP2 (Homo sapiens, UniProt O75342)
[7] = biological target: HEK293 cell lysate proteins and CHIKV nsP2 (Homo sapiens, UniProt P04259)
Chain of HEK293 cell lysate proteins and CHIKV nsP2 (Homo sapiens, UniProt P04259) (P04259 whole entry): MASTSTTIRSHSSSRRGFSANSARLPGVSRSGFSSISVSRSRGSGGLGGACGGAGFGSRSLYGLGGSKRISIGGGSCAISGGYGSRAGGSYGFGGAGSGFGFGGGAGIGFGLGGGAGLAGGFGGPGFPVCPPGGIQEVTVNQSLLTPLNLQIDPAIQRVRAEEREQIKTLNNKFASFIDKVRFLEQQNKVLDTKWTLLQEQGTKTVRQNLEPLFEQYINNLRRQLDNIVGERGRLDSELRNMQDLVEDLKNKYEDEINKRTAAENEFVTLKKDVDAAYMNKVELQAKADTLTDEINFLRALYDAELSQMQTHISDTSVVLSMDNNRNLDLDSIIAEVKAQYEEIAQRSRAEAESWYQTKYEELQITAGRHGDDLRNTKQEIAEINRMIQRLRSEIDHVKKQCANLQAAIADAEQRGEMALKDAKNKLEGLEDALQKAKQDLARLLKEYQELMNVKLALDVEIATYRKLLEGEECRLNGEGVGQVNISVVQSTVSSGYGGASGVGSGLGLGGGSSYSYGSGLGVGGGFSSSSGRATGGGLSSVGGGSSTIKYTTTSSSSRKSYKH

[8] = biological target: HEK293 cell lysate proteins and CHIKV nsP2 (Homo sapiens, UniProt P05090)
[9] = biological target: HEK293 cell lysate proteins and CHIKV nsP2 (Homo sapiens, UniProt P06702)
Chain of HEK293 cell lysate proteins and CHIKV nsP2 (Homo sapiens, UniProt P06702) (P06702 whole entry): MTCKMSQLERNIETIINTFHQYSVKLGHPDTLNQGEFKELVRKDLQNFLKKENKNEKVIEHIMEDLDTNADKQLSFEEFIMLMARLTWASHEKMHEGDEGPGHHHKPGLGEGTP

[10] = biological target: HEK293 cell lysate proteins and CHIKV nsP2 (Homo sapiens, UniProt P06733)
[11] = biological target: HEK293 cell lysate proteins and CHIKV nsP2 (Homo sapiens, UniProt P07355)
[12] = biological target: HEK293 cell lysate proteins and CHIKV nsP2 (Homo sapiens, UniProt P08621)
[13] = biological target: HEK293 cell lysate proteins and CHIKV nsP2 (Homo sapiens, UniProt P14923)
[14] = biological target: HEK293 cell lysate proteins and CHIKV nsP2 (Homo sapiens, UniProt P22735)
Chain of HEK293 cell lysate proteins and CHIKV nsP2 (Homo sapiens, UniProt P22735) (P22735 whole entry): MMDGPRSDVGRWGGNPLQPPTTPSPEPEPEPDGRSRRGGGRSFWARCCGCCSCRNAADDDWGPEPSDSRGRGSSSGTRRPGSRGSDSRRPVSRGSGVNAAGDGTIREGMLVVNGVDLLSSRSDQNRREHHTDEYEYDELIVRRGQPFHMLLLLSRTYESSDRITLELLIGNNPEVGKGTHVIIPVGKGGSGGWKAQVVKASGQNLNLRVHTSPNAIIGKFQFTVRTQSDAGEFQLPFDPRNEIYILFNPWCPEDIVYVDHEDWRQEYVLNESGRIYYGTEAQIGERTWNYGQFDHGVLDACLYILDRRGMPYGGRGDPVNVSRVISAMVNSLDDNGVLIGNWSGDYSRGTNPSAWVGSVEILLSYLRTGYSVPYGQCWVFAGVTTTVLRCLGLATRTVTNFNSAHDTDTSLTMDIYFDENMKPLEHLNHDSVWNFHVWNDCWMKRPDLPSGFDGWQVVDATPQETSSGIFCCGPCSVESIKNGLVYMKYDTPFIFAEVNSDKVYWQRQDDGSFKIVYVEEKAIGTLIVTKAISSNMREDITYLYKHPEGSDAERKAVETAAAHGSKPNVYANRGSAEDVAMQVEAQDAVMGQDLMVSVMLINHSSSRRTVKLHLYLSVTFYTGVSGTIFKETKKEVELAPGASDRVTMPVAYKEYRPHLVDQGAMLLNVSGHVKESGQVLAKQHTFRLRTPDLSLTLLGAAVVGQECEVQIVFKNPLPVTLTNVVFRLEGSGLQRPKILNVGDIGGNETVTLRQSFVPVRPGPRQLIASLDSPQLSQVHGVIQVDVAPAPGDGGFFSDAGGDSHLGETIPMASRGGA

[15] = biological target: HEK293 cell lysate proteins and CHIKV nsP2 (Homo sapiens, UniProt P25311)
[16] = biological target: HEK293 cell lysate proteins and CHIKV nsP2 (Homo sapiens, UniProt P27816)
[17] = biological target: HEK293 cell lysate proteins and CHIKV nsP2 (Homo sapiens, UniProt P35251)
[18] = biological target: HEK293 cell lysate proteins and CHIKV nsP2 (Homo sapiens, UniProt P42357)
[19] = biological target: HEK293 cell lysate proteins and CHIKV nsP2 (Homo sapiens, UniProt P46013)
[20] = biological target: HEK293 cell lysate proteins and CHIKV nsP2 (Homo sapiens, UniProt P46821)
[21] = biological target: HEK293 cell lysate proteins and CHIKV nsP2 (Homo sapiens, UniProt P59665)
Chain of HEK293 cell lysate proteins and CHIKV nsP2 (Homo sapiens, UniProt P59665) (P59665 39-94): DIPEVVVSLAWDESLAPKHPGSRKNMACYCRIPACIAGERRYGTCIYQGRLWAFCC

[22] = biological target: HEK293 cell lysate proteins and CHIKV nsP2 (Homo sapiens, UniProt P62979)
[23] = biological target: HEK293 cell lysate proteins and CHIKV nsP2 (Homo sapiens, UniProt P68104)
[24] = biological target: HEK293 cell lysate proteins and CHIKV nsP2 (Homo sapiens, UniProt P81605)
[25] = biological target: HEK293 cell lysate proteins and CHIKV nsP2 (Homo sapiens, UniProt Q01469)
Chain of HEK293 cell lysate proteins and CHIKV nsP2 (Homo sapiens, UniProt Q01469) (Q01469 whole entry, looked up): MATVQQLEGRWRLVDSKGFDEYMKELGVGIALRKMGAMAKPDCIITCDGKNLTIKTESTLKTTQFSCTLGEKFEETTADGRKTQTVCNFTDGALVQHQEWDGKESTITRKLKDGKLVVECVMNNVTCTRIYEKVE

[26] = biological target: HEK293 cell lysate proteins and CHIKV nsP2 (Homo sapiens, UniProt Q14151)
Chain of HEK293 cell lysate proteins and CHIKV nsP2 (Homo sapiens, UniProt Q14151) (Q14151 whole entry): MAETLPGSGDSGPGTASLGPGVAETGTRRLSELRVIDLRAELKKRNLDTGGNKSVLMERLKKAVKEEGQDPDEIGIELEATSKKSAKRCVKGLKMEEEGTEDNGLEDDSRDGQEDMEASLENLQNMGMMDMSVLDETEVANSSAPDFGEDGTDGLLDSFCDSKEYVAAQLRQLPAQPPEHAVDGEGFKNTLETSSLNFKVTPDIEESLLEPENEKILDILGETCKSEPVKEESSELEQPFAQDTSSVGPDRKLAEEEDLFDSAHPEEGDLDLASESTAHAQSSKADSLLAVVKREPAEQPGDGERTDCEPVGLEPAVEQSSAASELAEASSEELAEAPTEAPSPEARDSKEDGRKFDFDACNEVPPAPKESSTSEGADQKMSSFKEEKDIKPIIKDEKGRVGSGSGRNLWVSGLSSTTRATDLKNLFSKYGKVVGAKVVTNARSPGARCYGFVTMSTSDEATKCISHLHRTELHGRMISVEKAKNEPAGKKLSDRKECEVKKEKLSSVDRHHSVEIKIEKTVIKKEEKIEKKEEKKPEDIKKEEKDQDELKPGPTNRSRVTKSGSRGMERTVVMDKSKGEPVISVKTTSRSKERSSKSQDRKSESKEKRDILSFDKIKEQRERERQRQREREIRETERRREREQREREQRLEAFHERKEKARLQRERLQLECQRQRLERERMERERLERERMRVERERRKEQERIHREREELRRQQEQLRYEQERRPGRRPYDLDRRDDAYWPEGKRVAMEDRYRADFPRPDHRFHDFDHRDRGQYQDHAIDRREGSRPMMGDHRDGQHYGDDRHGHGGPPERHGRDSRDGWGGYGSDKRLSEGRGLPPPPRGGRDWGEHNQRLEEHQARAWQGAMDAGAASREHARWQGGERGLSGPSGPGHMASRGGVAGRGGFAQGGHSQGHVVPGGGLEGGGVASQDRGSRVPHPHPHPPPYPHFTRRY

[27] = biological target: HEK293 cell lysate proteins and CHIKV nsP2 (Homo sapiens, UniProt Q15517)
[28] = biological target: HEK293 cell lysate proteins and CHIKV nsP2 (Homo sapiens, UniProt Q3YEC7)
[29] = biological target: HEK293 cell lysate proteins and CHIKV nsP2 (Homo sapiens, UniProt Q6KC79)
[30] = biological target: HEK293 cell lysate proteins and CHIKV nsP2 (Homo sapiens, UniProt Q6ZVX7)
[31] = biological target: HEK293 cell lysate proteins and CHIKV nsP2 (Homo sapiens, UniProt Q8NI27)
[32] = biological target: HEK293 cell lysate proteins and CHIKV nsP2 (Homo sapiens, UniProt Q8TEQ6)
Chain of HEK293 cell lysate proteins and CHIKV nsP2 (Homo sapiens, UniProt Q8TEQ6) (Q8TEQ6 whole entry): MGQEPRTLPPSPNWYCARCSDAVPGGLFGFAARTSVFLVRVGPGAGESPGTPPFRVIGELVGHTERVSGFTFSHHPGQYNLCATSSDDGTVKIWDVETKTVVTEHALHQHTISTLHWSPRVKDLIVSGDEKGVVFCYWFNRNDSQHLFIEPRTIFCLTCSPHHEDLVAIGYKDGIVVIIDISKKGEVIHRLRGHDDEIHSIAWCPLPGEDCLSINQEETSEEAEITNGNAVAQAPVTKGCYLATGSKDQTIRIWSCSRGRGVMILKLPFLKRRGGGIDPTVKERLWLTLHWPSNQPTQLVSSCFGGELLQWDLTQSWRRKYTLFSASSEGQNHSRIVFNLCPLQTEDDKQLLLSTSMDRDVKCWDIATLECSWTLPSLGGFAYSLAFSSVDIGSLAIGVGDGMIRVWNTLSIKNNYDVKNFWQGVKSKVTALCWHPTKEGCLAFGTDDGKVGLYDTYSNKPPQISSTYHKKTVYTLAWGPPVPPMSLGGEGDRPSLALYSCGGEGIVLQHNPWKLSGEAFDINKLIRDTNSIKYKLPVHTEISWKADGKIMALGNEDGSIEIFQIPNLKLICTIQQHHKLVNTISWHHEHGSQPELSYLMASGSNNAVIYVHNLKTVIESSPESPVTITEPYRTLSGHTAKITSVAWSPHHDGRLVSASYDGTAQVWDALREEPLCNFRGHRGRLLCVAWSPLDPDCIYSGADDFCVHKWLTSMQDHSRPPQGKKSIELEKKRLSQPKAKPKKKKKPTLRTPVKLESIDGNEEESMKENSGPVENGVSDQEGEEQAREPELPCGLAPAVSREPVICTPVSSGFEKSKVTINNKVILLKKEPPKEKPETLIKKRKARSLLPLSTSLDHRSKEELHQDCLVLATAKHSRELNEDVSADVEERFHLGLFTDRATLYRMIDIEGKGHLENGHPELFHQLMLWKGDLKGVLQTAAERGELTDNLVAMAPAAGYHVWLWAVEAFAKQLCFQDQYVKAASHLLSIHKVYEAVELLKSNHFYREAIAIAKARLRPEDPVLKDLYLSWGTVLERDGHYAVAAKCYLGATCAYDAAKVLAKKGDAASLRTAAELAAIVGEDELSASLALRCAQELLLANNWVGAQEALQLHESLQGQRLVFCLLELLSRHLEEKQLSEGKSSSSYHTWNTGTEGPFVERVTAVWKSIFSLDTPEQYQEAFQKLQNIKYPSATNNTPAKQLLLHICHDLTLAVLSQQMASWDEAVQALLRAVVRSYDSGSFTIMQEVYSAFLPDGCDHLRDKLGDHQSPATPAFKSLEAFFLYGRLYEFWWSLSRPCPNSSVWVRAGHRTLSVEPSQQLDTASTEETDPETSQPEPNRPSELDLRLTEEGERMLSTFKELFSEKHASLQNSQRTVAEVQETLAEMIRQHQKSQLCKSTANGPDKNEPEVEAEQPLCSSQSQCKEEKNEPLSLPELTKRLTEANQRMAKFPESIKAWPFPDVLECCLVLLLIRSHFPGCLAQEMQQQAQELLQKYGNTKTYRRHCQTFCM

[33] = biological target: HEK293 cell lysate proteins and CHIKV nsP2 (Homo sapiens, UniProt Q96QA5)
[34] = biological target: HEK293 cell lysate proteins and CHIKV nsP2 (Homo sapiens, UniProt Q99459)
[35] = biological target: HEK293 cell lysate proteins and CHIKV nsP2 (Homo sapiens, UniProt Q99549)
Chain of HEK293 cell lysate proteins and CHIKV nsP2 (Homo sapiens, UniProt Q99549) (Q99549 whole entry): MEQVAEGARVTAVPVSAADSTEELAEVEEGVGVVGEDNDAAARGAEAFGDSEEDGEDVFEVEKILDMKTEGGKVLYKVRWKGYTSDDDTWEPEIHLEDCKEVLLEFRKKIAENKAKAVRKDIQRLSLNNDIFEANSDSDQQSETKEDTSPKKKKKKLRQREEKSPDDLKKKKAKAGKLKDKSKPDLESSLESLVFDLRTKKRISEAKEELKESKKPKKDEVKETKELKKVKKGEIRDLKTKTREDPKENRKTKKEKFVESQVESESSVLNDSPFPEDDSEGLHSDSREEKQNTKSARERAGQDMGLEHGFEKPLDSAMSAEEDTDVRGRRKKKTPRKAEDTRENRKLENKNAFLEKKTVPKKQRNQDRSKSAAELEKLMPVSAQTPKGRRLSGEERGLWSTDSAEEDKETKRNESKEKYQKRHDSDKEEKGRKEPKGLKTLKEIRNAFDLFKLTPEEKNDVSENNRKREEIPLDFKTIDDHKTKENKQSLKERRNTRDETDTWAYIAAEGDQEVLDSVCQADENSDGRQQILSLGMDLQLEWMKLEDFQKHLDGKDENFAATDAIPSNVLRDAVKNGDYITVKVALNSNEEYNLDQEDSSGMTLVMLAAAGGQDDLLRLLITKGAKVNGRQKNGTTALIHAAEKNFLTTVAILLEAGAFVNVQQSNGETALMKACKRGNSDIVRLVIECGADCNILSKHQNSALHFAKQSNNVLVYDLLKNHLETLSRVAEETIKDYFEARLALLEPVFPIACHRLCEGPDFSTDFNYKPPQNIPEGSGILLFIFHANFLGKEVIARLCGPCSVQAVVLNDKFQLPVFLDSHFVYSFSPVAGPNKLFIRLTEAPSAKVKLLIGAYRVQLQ

[36] = biological target: HEK293 cell lysate proteins and CHIKV nsP2 (Homo sapiens, UniProt Q9Y5B9)

C#CCOc1ccccc1-c1cc(C(=O)NC/C=C/S(C)(=O)=O)on1 [VS, (E)-N-(3-(methylsulfonyl)allyl)−3-(2-(prop-2-yn-1-yloxy)phenyl)isoxazole-5-carboxamide]
Log2 fold change [1]: 1.10
Log2 fold change [2]: -0.93
Log2 fold change [3]: 0.62
Log2 fold change [4]: 4.33
Log2 fold change [5]: -1.93
Log2 fold change [6]: 2.14
Log2 fold change [7]: 3.24
Log2 fold change [8]: 6.55
Log2 fold change [9]: 1.63
Log2 fold change [10]: 1.36
Log2 fold change [11]: 1.52
Log2 fold change [12]: 3.47
Log2 fold change [13]: 1.97
Log2 fold change [14]: 1.60
Log2 fold change [15]: 1.43
Log2 fold change [16]: -0.37
Log2 fold change [17]: 0.30
Log2 fold change [18]: 1.12
Log2 fold change [19]: 0.64
Log2 fold change [20]: -0.63
Log2 fold change [21]: -2.83
Log2 fold change [22]: 0.71
Log2 fold change [23]: 0.56
Log2 fold change [24]: 1.36
Log2 fold change [25]: 2.38
Log2 fold change [26]: 1.50
Log2 fold change [27]: 1.22
Log2 fold change [28]: -2.27
Log2 fold change [29]: -0.34
Log2 fold change [30]: 2.74
Log2 fold change [31]: -0.12
Log2 fold change [32]: -0.32
Log2 fold change [33]: 1.51
Log2 fold change [34]: -0.00878
Log2 fold change [35]: 0.0737
Log2 fold change [36]: -3.45

Source: publication PMC11873239, “A covalent chemical probe for Chikungunya nsP2 cysteine protease with antialphaviral activity and proteome-wide selectivity” (Scientific Reports, 2025)
